{
  "source": "paper PMC6304418",
  "about": "“A Novel Compound Targeting Protease Receptor 1 Activators for the Treatment of Glioblastoma” (Frontiers in Neurology, 2018)",
  "key": {"[1]": {"test_system": "human normal pooled citrated plasma", "test": "Coagulation in plasma (PT, aPTT, TT)", "description": "HemosIL normal control (Instrumentation Laboratory), was used as human normal pooled citrated plasma from healthy donors. The lyophilized human plasma containing buffer, stabilizers and preservatives, was reconstituted using standard laboratory methods. The plasma was exposed in-vitro to indicated concentrations of SIXAC for 10 min. Next, prothrombin time (PT), activated partial thromboplastin time (aPTT) and thrombin time (TT) were measured. All tests were carried out with an ACLTOP® 500 autoanalyzerat in the Sheba medical center (Israel) MegaLab according to standard operating procedures (SOP). The results represent an average of 5 measures."}, "CNS-1 glioma cells": {"test_system": "CNS-1 glioma cells", "test": "CNS-1 glioma cell proliferation (XTT)", "type": "cell-based, rat", "conditions": "SIXAC 1 μM, 72 h, FCS-free medium, p < 0.03", "description": "CNS-1, C6, and U87 rat and human glioma cells were grown in Dulbecco's modified Eagle's medium (DMEM; Bet Haemek, Biological Industries, Israel) supplemented with 10% fetal bovine serum (Bet Haemek, Biological Industries, Israel) and 1% penicillin and streptomycin in a 5% CO2-humidified atmosphere.\nCell proliferation was evaluated using a 2.3-Bis-(2-methoxy-4-nitro-5-sulfophenyl)-2H-tetrazolium-5-carboxyanilide salt (XTT)-based cell proliferation assay kit (Bet Haemek, Biological Industries, Israel). U87 cells were seeded in 96-well plates (5 × 10^3 cells/well) and incubated for 24 h. The medium was then removed, the tested molecules (10^−13-10^−4 M final concentration) were added in FCS-free medium and introduced to the cells for 72 h. After choosing SIXAC as the leading molecule, it was tested in a similar way in CNS-1 cells (SIXAC 1 μM final concentration). XTT solution (50 μl) was added to each well and incubated for 3 h at 37°C. The optical density (OD) of each well was recorded at 450 and 630 nm in a microplate reader (Infinite M200, Tecan, Durham, NC, USA). Cell viability was expressed as the percentage (ODtest–ODblank)/(ODcontrol–ODblank), where ODtest is the optical density of cells exposed to SIXAC treatment, ODcontrol is the optical density of the control sample, and ODblank is the optical density of wells without glioma cells."}, "[2]": {"test": "SIXAC stability over time at 37°C, measured by its inhibition of thrombin", "type": "physicochemical", "conditions": "400 μM SIXAC incubated and sampled, read-out inhibition of 0.05 U/ml thrombin", "description": "Thrombin activity was assessed using a fluorogenic thrombin substrate (Bachem I-1560, excitation 360 nm; emission 465 nm). As previously described ([19], [36]), the reactions were carried out in a black 96-well microplate. All reactions were performed in Tris buffer (in mM: 150 NaCl, 1 CaCl2, 50 Tris-HCl: pH 8.0) and in the presence of endopeptidase inhibitors (0.1 mg/ml, bestatin hydrochloride—B8385, Sigma; 200 μM prolylendopeptidase inhibitor II, 537011, Merck Millipore) to eliminate the effect of widely abundant CNS endopeptidases on the assay. Known bovine thrombin concentrations (T-4648, Sigma) were used to create a calibration curve for each experiment. IC50 for inhibition of C6 glioma-generated thrombin activity by the molecules was measured in the medium secreted from the cells as described before ([19]). Briefly, C6 cells were seeded (5 × 10^4 cells/ml, 200 μl per well) and allowed to attach the well bottom for 24 h. […] The substrate was added and fluorescence was measured. […] Inhibition of commercial thrombin by SIXAC was measured by applying increasing concentrations of SIXAC (10^−12-10^−5M final concentration) to wells containing 0.05U/ml thrombin (final concentration). […] The sampled SIXAC was added to a constant concentration of thrombin (0.05 U/ml) and thrombin activity was measured. […] All other measures were calculated as a portion of the total activity."}},
  "note": "Entries after “also recorded” stand apart in the source; their conditions may differ. Where a SMILES comes first, the peptide text is derived from it. The star is where a group is joined. Tos = Cc1ccc(S(=O)(=O)*)cc1; CH2Cl = ClC*",
  "data": [
    {"compound": "Cc1ccc(S(=O)(=O)N[C@@H](C)C(=O)N[C@H](C(=O)N[C@@H](CC(C)C)C(=O)N[C@@H](CC(=O)O)C(=O)N2CCC[C@H]2C(=O)N[C@@H](CCCNC(=N)N)C(=O)CCl)[C@@H](C)O)cc1", "note": "[SIXAC] (Tos-ATLDPR-CH2Cl)", "values": [
      {"measurement": "margin of coagulation-affecting concentration over IC50 for thrombin inhibition", "setting": "[1]; 10^−4M vs. IC50 for thrombin inhibition", "result": "at least 4.5 orders of magnitude"},
      {"measurement": "concentration at which coagulation tests (PT, aPTT, TT) are affected", "setting": "[1]; human plasma exposed 10 min, affected only at this concentration, average of 5 measures", "result": "10^−4 M"},
      {"measurement": "effect on PT, aPTT and TT (in words)", "setting": "[1]; human plasma exposed 10 min, concentrations equivalent to those used to treat animals, average of 5 measures", "result": "no clinical significant effects; also recorded: The effect was minimal for the therapeutic dosages used in the experiment"},
      {"measurement": "CNS-1 cell proliferation rate", "setting": "CNS-1 glioma cells", "result": "significantly decrease proliferation rate (p < 0.03); also recorded: significantly decrease the CNS-1 cell proliferation rate"},
      {"measurement": "stability: time for which SIXAC was stable and significantly inhibited thrombin", "setting": "[2]", "result": "≥ 18", "unit": "days"}
    ]}
  ]
}
